# In patent publication US7608585B2, “Compositions for inhibition of necrosis induced by a neurotrophin” (Neurotech Pharmaceuticals Co., Ltd., priority 2004, dated 2009):
# Where two headings read alike, the source gives them in different places.
# What was measured:
# [1] = system: BDNF-induced neuronal death in cortical cell cultures; test: Protection against BDNF-induced neuronal death, LDH efflux; type: cell-based, Rat; conditions: for Swelling of neuronal cell body and neuronal death: 36 hr after exposure to BDNF, 3-10 nM DPI, 10-30 μM AEBSF; for BDNF neurotoxicity / BDNF-induced neuronal cell necrosis (LDH efflux): 100 ng/ml BDNF, 36 hr, 100 μg/ml anti-BDNF antibody, 100 μM trolox, 1 μg/ml cycloheximide
# Procedure: Cortical cell cultures (DIV 12-15) were exposed to 100 ng/ml BDNF, alone or in the presence NADPH oxidase inhibitors, 3-10 nM DPI, 10-30 μM 4-(2-amonoethyl)-benzensulfonyl fluoride (AEBSF), or 1 μM 2-Hydroxy-TTBA ((2-Hydroxy-5-(2,3,5,6-tetrafluoro-4-trifluoromethyl-benzylamino)-benzoic acid). Neuronal death was analyzed 36 hr later by measurement of LDH efflux into the bathing medium.
# [2] = system: free radical neurotoxicity; conditions: as anti-oxidants; cited from earlier work
# ROS in cortical neurons = test: ROS imaging by oxidized DCDHF-DA (DCF) and hydroethidine fluorescence; type: cell-based, Rat; conditions: for BDNF-induced production of [ROS]i: concurrent addition with 100 ng/ml BDNF, 32 hr
# Procedure: Cortical cell cultures (DIV 12-15) grown on glass bottom dishes were loaded with 10 μM dichlorodihydro fluorescein diacetate (DCDHF-DA) or 5 μM hydroethidium (Molecular Probes, Eugene, Oreg.) plus 2% Pluronic F-127 in HEPES-buffered control salt solution (HCSS) buffer containing (in mM): 120 NaCl, 5 KCl, 1.6 MgCl2, 2.3 CaCl2, 15 glucose, 20 HEPES, and 10 NaOH. Cultures were incubated for 20 min at 37° C., and washed three times with HCSS buffer. […] The fluorescence images were analyzed using a QuantiCell 700 system (Applied imaging, UK).
# Superoxide production through activation of NADPH oxidase was analyzed by measuring the oxidation of HEt and DCDHF to ethidium and DCF, respectively, in cortical neurons after exposure to a sham operation, 100 ng/ml BDNF, or 100 ng/ml BDNF plus 3 nM DPI for 32 hr (FIG. 15).
# [3] = system: Neuron-rich cortical cell cultures; test: Serum deprivation-induced neuronal apoptosis, counting viable neurons; type: cell-based, Rat; conditions: for Anti-apoptotic action of BDNF on inclusion of the substance: 100 ng/ml BDNF plus 3 nM DPI or 100 μM trolox; for Serum deprivation-induced neuronal apoptosis: alone, without BDNF; for Serum deprivation-induced neuronal apoptosis / Delayed neuronal death evolving in the presence of BDNF: 3 nM DPI, 100 μM trolox; for Delayed neuronal death evolving in the presence of BDNF: concurrent addition, 48 hr
# Procedure: (§1) For neuron-glia mixed cultures, 10 μM cytosine arabinoside (Ara C) was included to stop the overgrowth of non-neuronal cells to cultures at DIV 5-7 when glial cells were confluent underneath neurons. After 2 days, cultures were then fed with plating medium lacking fetal serum twice a week. Cultures were maintained at 37° C. in a humidified 5% CO2 incubator. For neuron-rich cultures (>95%), 2.5 μM Ara C was included to cultures at 2-3 days in vitro (DIV 2-3) as previously described (Gwag et al., 1997).
# (§2) Mixed cortical cell cultures (DIV 12-14) were rinsed in serum free MS (MEM supplemented with 26.5 mM sodium bicarbonate and 21 mM glucose) and then exposed to various concentrations of NGF, BDNF or NT-3 in serum free MS. Neuronal cell death was analyzed by measuring the level of lactate dehydrogenase (LDH) released into the bathing medium. The percent neuronal death was normalized to the mean LDH value released after a sham control (defined as 0%) or continuous exposure to 500 μM NMDA for 24 hr (defined as 100%) The latter produces complete neuronal death within 24 hr. For experiments for serum deprivation, neuron-rich cortical cell cultures (DIV 7) were placed into serum free MS containing 1 μM MK-801 as described (Gwag et al., 1995). Neuronal death was analyzed 24 and 48 hr later by counting viable neurons excluding Trypan Blue satained.
# Neuron-rich cortical cell cultures (DIV 7) were deprived of serum, alone (serum deprivation) or in the presence of 100 ng/ml BDNF, 100 ng/ml BDNF plus 3 nM DPI, 3 nM DPI, 100 ng/ml BDNF plus 100 μM trolox, or 100 μM trolox. Neuronal death was assessed 24 hr and 48 hr later by counting viable neurons.
# [4] = system: Mixed cortical cell cultures; type: cell-based, Rat
# Procedure: Rat cortical cell cultures were prepared from the 17-day-old fetal brain and the neocortices were mechanically triturated as previously described (Noh and Gwag, 1997). Dissociated cells were plated on 6-well plates and 24-well plates (approximately 3 cortices per plate), or on glass bottom 35 mm dishes for ROS imaging. Plating media consist of Eagle's minimal essential media (MEM, Earle's salts, supplied glutamine-free) supplemented with 5% horse serum, 5% fetal bovine serum, 21 mM glucose, 26.5 mM bicarbonate and 2 mM L-glutamine.
# as §1
# To examine if neurotrophins would induce neuronal necrosis, BDNF-induced neuronal death was analyzed by measuring the level of lactate dehydrogenase (LDH) released into the bathing medium.
# as §2
# Neuronal cell death was assessed by measurement of LDH efflux to the bathing medium, mean±SEM (n=16 culture wells per condition). *, Significant difference from the relevant control (sham washed control), at P<0.05 using analysis of variance and Student-Newman-Keuls test.
# cortical neurons = type: cell-based
# Procedure: To examine the patterns of BDNF-induced neuronal death, we observed neurons from 32 hrs after a sham wash or continuous exposure to 100 ng/ml BDNF under phase contrast or transmission electron microscope.
# Cultures were fixed in Karnovskys fixative solution (1% paraformaldehyde, 2% glutaraldehyde, 2 mM calcium cholride, 100 mM cacodylate buffer, pH 7.4) for 2 hr, washed with cacodylate buffer, and post-fixed in 1% osmium tetroxide and 1.5% potassium ferrocyanide for 1 hr. Cells were then stained en bloc in 0.5% uranyl acetate, dehydrated through graded ethanol series, and embedded in Poly/Bed 812 resin (Pelco, Calif.). Cells were sectioned using Reichert Jung Ultracut S (Leica, Cambridge, UK). After staining cells with uranyl acetate and lead citrate, cells were observed and photographed under Zeiss EM 902A.
# [5] = 36 hr after 100 ng/ml BDNF, 3 nM DPI, 10 μM AEBSF, 1 μM 2-Hydroxy-TTBA
molecule,measurement,setting,value
"O=C(O)c1cc(NCc2c(F)c(F)c(C(F)(F)F)c(F)c2F)ccc1O [2-Hydroxy-TTBA, 2-Hydroxy-5-(2,3,5,6-tetrafluoro-4trifluoromethyl-benzylamino)-benzoic acid]",Neuronal necrosis (LDH efflux),[1]; [5],significantly reduced
same,Free radical neurotoxicity,[2],block free radical neurotoxicity
"NCCc1ccc(S(=O)(=O)F)cc1 [AEBSF, 4-(2-amonoethyl)-benzensulfonyl fluoride]",Neuronal necrosis (LDH efflux),[1]; [5],significantly reduced
same,Swelling of neuronal cell body and neuronal death,[1],significantly reduced
"c1ccc2c(c1)[I+]c1ccccc1-2 [DPI, diphenylene iodonium]",Neuronal necrosis (LDH efflux),[1],significantly reduced
same,Swelling of neuronal cell body and neuronal death,[1],significantly reduced
same,BDNF-induced superoxide production (oxidation of HEt and DCDHF),ROS in cortical neurons,completely blocked
same,Anti-apoptotic action of BDNF on inclusion of the substance,[3],insensitive
same,Serum deprivation-induced neuronal apoptosis,[3],Neither DPI nor trolox alone reduced
same,Delayed neuronal death evolving in the presence of BDNF,[3],attenuated
"O=C(O)c1cc(NCc2ccc(F)cc2)ccc1O [FBAS, 5-(4-fluorobenxyl) aminosalicylic acid]",Free radical neurotoxicity,[2],block free radical neurotoxicity
COc1ccc(CNc2ccc(O)c(C(=O)O)c2)cc1 [MBAS],Free radical neurotoxicity,[2],block free radical neurotoxicity
"C[C@@H]1C[C@@H]([C@H](O)CC2CC(=O)NC(=O)C2)C(=O)[C@@H](C)C1 [cycloheximide, reference compound]",BDNF neurotoxicity / BDNF-induced neuronal cell necrosis (LDH efflux),[1],blocked
same,BDNF-induced production of [ROS]i,ROS in cortical neurons,prevented
Cc1c(C)c2c(c(C)c1O)CCC(C)(C(=O)O)O2 (stereo not shown) [trolox],BDNF neurotoxicity / BDNF-induced neuronal cell necrosis (LDH efflux),[1],blocked
same,BDNF-induced production of [ROS]i,ROS in cortical neurons,prevented
same,Anti-apoptotic action of BDNF on inclusion of the substance,[3],insensitive
same,Serum deprivation-induced neuronal apoptosis,[3],Neither DPI nor trolox alone reduced
same,Delayed neuronal death evolving in the presence of BDNF,[3],attenuated
"NT-3: neurotrophin-3, a neurotrophin",Cell necrosis induced by neurotrophin,[4],derives cell necrosis
same,Neuronal death (LDH efflux to the bathing medium),[4],Near complete neuronal death
"NT-4/5: a neurotrophin (protein, UniProt P34130 81-210, looked up) Neurotrophin-4: GVSETAPASRRGELAVCDAVSGWVTDRRTAVDLRGREVEVLGEVPAAGGSPLRQYFFETRCKADNAEEGGPGAGGGGCRGVDRRHWVSECKAKQSYVRALTADAQGRVGWRWIRIDTACVCTLLSRTGRA",Cell necrosis induced by neurotrophin,[4],derives cell necrosis
"BDNF: brain-derived neurotrophic factor, a neurotrophin (protein, UniProt P23560 19-247, looked up) Neurotrophic factor BDNF …: APMKEANIRGQGGLAYPGVRTHGTLESVNGPKAGSRGLTSLADTFEHVIEELLDEDQKVRPNEENNKDADLYTSRVMLSSQVPLEPPLLFLLEEYKNYLDAANMSMRVRRHSDPARRGELSVCDSISEWVTAADKKTAVDMSGGTVTVLEKVPVSKGQLKQYFYETKCNPMGYTKEGCRGIDKRHWNSQCRTTQSYVRALTMDSKKRIGWRFIRIDTSCVCTLTIKRGR",Pattern of neuronal death under transmission electron microscope,cortical neurons,induced neuronal necrosis
same,Cell necrosis induced by neurotrophin,[4],derives cell necrosis
same,Neuronal death (LDH efflux to the bathing medium),[4],Near complete neuronal death
